Values belong to the substance of their own block, whether it stands above or below them. No end group written: not given here.
Assays:
[1] = target: trypsin; test: equilibrium binding of fluorescently-labeled trypsin to yeast-displayed EETIwt (flow cytometry); conditions: data not shown
Text: We measured cell surface expression levels of the EETIwt fusion protein by flow cytometry, after staining yeast cells with a primary antibody against a C-terminal cMyc epitope tag followed by the addition of a fluorescently-labeled secondary antibody. […] (Figure 2).
Figure 2 Yeast surface display of EETI knottins and isolation of properly folded EETI loop-substituted clones. […] Density plots depict protein expression (x-axis) versus trypsin binding (y-axis) for enriched pools of loop-substituted clones after four rounds of sorting. […] (C) The progression of enrichment for properly folded EETI loop-substituted variants was monitored by flow cytometry and quantified by trypsin binding levels (at 25 nM), normalized for differences in protein expression levels. Unsorted libraries (white), libraries after two rounds of sorting (light grey), and libraries after four rounds of sorting (dark grey), as compared to EETIwt (striped). Trypsin-binding experiments were performed in triplicate and error bars denote standard deviations.
YPD media contained 20 g/L dextrose, 20 g/L peptone, and 10 g/L yeast extract. Selective SD-CAA media contained 20 g/L dextrose, 6.7 g/L yeast nitrogen base without amino acids, 5.4 g/L Na2HPO4, 8.6 g/L NaH2PO4⋅H2O, and 5 g/L Bacto casamino acids. […]

[2] = test system: trypsin; test: trypsin binding of individual yeast-displayed EETI loop 3 clones by dual-color flow cytometry; conditions: triplicate; for trypsin binding level as percentage of EETIwt / trypsin binding level relative to EETIwt (fold higher): adjusted for expression (cMyc), normalized to EETIwt; for statistical significance of trypsin binding level over the highest-binding randomly-generated clone: single-factor ANOVA (p<0.02), 25 nM trypsin; for trypsin binding level relative to EETIwt (fold higher): single-factor ANOVA p<0.05 vs EETIwt
Text: In addition, we also constructed twenty-five clones where EETI loop 3 was replaced by a randomly-generated nine-amino acid sequence (Table S2). Plasmids containing DNA encoding for predicted and randomly-generated clones were transformed into yeast and induced for expression on the yeast cell surface as described above. Next, we analyzed the predicted and randomly-generated EETI loop 3 clones by dual-color flow cytometry for yeast cell surface expression and binding to fluorescent trypsin, indicating retention of the knottin fold (Figure 8). […] Overall, the least-similar predicted clones also bound trypsin, but not as well as the motif-filtered clones, as expected. The small differences in trypsin binding levels of six of the least-similar predicted clones as compared to EETIwt were deemed statistically insignificant, based on single-factor ANOVA (p<0.05). […] Even the best randomly-generated clone only bound trypsin at 16% of the wild-type EETI trypsin binding level. The successful prediction of nine-amino acid sequences that can be substituted into EETI loop 3 without disrupting the knottin fold highlights the potential of this combinatorial approach for rational protein engineering applications.
Figure 8 Trypsin-binding levels of EETI loop 3 predicted and randomly-generated clones. […] Predicted clones are preceded with a ‘p’ while randomly-generated clones are preceded with an ‘r.’ Protein expression levels were quantified by immunofluorescence staining of the cMyc epitope tag. Retention of the knottin fold was determined by binding of fluorescently-labeled trypsin (25 nM). Trypsin binding levels were adjusted to account for differences in protein expression levels and then normalized to the trypsin-binding level of EETIwt. Trypsin-binding experiments were performed in triplicate and error bars denote standard deviations.
YPD media contained 20 g/L dextrose, 20 g/L peptone, and 10 g/L yeast extract. Selective SD-CAA media contained 20 g/L dextrose, 6.7 g/L yeast nitrogen base without amino acids, 5.4 g/L Na2HPO4, 8.6 g/L NaH2PO4⋅H2O, and 5 g/L Bacto casamino acids. Selective SD-CAA plates were of the same composition as the liquid media except with the addition of 182 g/L sorbitol and 15 g/L agar. SG-CAA media was identical to the SD-CAA media except dextrose was replaced with galactose. PBSA was composed of phosphate buffered saline containing 1 g/L bovine serum albumin. Lyophilized trypsin was purchased from Sigma Aldrich and fluorescently labeled with Alexa Fluor 488 tetrafluorophenyl ester (Invitrogen). Mouse anti-cMyc antibody was purchased from Covance and goat anti-mouse antibody conjugated to R-phycoerythrin was purchased from Sigma Aldrich.
Four rounds of FACS were performed on each EETI loop-substituted library to obtain an enriched pool of trypsin-binding clones. Libraries of yeast clones induced for protein expression were suspended in PBSA with mouse anti-cMyc monoclonal antibody (1∶50 dilution) and incubated for 1 h at room temperature. Yeast were pelleted by centrifugation at 4,000 rpm for 5 min, the supernatant was aspirated, and cells were washed with ice-cold PBSA. Washed yeast libraries were resuspended in PBSA with goat anti-mouse R-phycoerythrin secondary antibody (1∶25 dilution) and Alexa 488-labeled trypsin and incubated on ice in the dark for 30 min. […] Collected library clones were propagated in SD-CAA media with penicillin-streptomycin (400 µg/mL), induced for protein expression in SG-CAA media and subjected to three additional rounds of sorting. For the first round of sorting, approximately 2×10^7 yeast were sorted from each library, and at least 10 times the number of collected yeast were sorted in each subsequent round to decrease the probability of losing unique clones. Sort stringency was increased by gradually decreasing the concentration of Alexa488-labeled trypsin from 200 nM in the first round to 25 nM in the fourth round. […]

[3] = 25 nM fluorescently-labeled trypsin

Substance: Ecballium elaterium trypsin inhibitor II [EETIwt]
Kd ([1]; Alexa Fluor 488-labeled trypsin, read-out: approximate equilibrium binding constant): ~25 nM
trypsin binding specificity, in words ([1]; fluorescently-labeled trypsin): bound specifically

Substance: NRNRKTPGY (disulfide (positions not given here)) [p3, motif-filtered predicted EETI loop 3 clone, …]
trypsin binding level as percentage of EETIwt [2, 3]: approximately 70%

Substance: NRNRRRTGY (disulfide (positions not given here)) [p1, motif-filtered predicted EETI loop 3 clone, …]
trypsin binding level relative to EETIwt (fold higher) [2, 3]: roughly 1.5 -fold

Substance: RRNRKTLGY (disulfide) [p9, motif-filtered predicted EETI loop 3 clone, …]
trypsin binding level relative to EETIwt (fold higher) [2, 3]: roughly 1.5 -fold

Second part, led by results:

trypsin binding level as percentage of EETIwt [2, 3]: approximately 30%
Substance: NNTNTGRGY (disulfide (positions not given here)) [p20, least-similar predicted EETI loop 3 clone, …]
statistical significance of trypsin binding level over the highest-binding randomly-generated clone [2]: statistically significant over the highest-binding randomly-generated clone

trypsin binding level as percentage of EETIwt [2, 3]: approximately 30%
Substance: NTTNNSPGY (disulfide (positions not given here)) [p25, least-similar predicted EETI loop 3 clone, …]
statistical significance of trypsin binding level over the highest-binding randomly-generated clone [2]: statistically significant over the highest-binding randomly-generated clone

trypsin binding level as percentage of EETIwt [2, 3]: < 5%
trypsin binding, in words ([2]; 25 nM fluorescently-labeled trypsin, yeast surface display): does not bind trypsin
Substance: potato carboxypeptidase inhibitor: a knottin that does not bind trypsin; negative control (QQHADPICNKPCKTHDDCSGAWFCQACWNSARTCGPYVG; ends and bridges not checked; cysteine pairing not given here; UniProt P01075 1-39, looked up) [reference compound]

Reference: paper PMC2725296, “Interrogating and Predicting Tolerated Sequence Diversity in Protein Folds: Application to E. elaterium Trypsin Inhibitor-II Cystine-Knot Miniprotein” (PLoS Computational Biology, 2009)
